One experiment concerns the target T1, M3 muscarinic receptor (Homo sapiens, UniProt P20309).
T1 construct: purchased
The experiment can be described thus: Muscarinic receptor radioligand binding assay ([3H]-NMS), M3. Particulars: cell membranes expressing human M3 receptor. As to the method: (§1) The inhibitory effects of compounds of the present invention at the M3 muscarinic receptor and (in the case of Example 77) the β2 adrenergic receptor, were determined by the following binding assays:
Radioligand binding studies utilising [^3H]-N-methyl scopolamine ([^3H]-NMS) and commercially available cell membranes expressing the human muscarinic receptors (M2 and M3) were used to assess the affinity of muscarinic antagonists for M2 and M3 receptors. Membranes in TRIS buffer were incubated in 96-well plates with [^3H]-NMS and M3 antagonist at various concentrations for 3 hours. Membranes and bound radioligand were then harvested by filtration and allowed to dry overnight. Scintillation fluid was then added and the bound radioligand counted using a Can berra Packard Topcount scintillation counter

Experiment [1] addresses T2, human β2 adrenergic receptor (Homo sapiens, UniProt P07550).
T2 construct: purchased
The experiment can be described thus: β-Adrenergic receptor radioligand binding assay ([125I]-Iodocyanopindolol). The following applies: cell membranes expressing human β2 adrenergic receptor. As to the method:
as §1
Radioligand binding studies utilising [^125I]-Iodocyanopindolol and commercially available cell membranes expressing the human β2 adrenergic receptor were used to assess the affinity of antagonists for β2-adrenergic receptor. Membranes and SPA-beads were incubated with [^125I-Iodocyanopindolol and β2 antagonist at various concentrations for 3 hours at room temperature in TRIS buffer. The assay was performed in 96-well plates which were read using the Wallac Microbeta counter.

Structures are written as SMILES. Structures can show the parent of a compound that is named as a salt.

T1 sequence (P20309 whole entry): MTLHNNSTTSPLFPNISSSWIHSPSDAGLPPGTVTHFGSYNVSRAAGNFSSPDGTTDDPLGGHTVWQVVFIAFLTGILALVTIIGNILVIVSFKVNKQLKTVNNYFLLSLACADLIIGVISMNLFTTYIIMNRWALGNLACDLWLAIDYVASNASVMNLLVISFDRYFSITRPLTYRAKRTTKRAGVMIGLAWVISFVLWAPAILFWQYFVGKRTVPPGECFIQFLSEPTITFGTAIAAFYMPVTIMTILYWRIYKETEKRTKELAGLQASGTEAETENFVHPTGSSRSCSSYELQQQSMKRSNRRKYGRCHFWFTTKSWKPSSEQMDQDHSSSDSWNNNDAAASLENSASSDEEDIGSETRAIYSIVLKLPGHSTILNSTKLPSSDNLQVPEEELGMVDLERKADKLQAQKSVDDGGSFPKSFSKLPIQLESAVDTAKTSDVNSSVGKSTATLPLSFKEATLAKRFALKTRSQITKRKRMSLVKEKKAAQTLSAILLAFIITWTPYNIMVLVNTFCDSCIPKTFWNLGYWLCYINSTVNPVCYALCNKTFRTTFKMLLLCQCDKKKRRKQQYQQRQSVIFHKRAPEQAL
T2 sequence (P07550 whole entry): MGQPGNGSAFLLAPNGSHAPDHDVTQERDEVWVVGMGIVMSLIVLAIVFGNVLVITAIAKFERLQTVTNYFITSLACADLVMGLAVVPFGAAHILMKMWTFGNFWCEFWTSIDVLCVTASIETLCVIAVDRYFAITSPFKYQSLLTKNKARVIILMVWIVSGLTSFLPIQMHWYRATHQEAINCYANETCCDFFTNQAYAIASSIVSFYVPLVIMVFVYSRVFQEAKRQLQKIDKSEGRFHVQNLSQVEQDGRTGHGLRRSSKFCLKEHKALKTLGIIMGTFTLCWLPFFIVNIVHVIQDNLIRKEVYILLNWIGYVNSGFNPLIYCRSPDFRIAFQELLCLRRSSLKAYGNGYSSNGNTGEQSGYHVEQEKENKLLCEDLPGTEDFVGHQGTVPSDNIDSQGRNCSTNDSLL

At M3 muscarinic receptor, `C[N+](C)(CCCc1ccccc1)Cc1cnc([C@](O)(c2ccccc2)C2CCCCC2)o1` [Example 48, [2-((R)-cyclohexyl-hydroxy-phenyl-methyl)-oxazol-5-ylmethyl]-dimethyl-(3-phenyl-propyl)-ammonium formate] displayed a Ki below 1 nM. Turning to `C[N+](C)(CCOc1ccccc1)Cc1cnc([C@](O)(c2ccccc2)C2CCCCC2)o1` [Example 49, [2-((R)-cyclohexyl-hydroxy-phenyl-methyl)-oxazol-5-ylmethyl]-dimethyl-(2-phenoxy-ethyl)-ammonium formate], at M3 muscarinic receptor, the Ki was below 1 nM.

`CN(Cc1ccc(CC[N+](C)(C)Cc2cnc([C@](O)(c3ccccc3)C3CCCCC3)o2)cc1)C(=O)OC(C)(C)C` [Example 50, (2-{4-[(Tert-butoxycarbonyl-methyl-amino)-methyl]-phenyl}-ethyl)-[2-((R)-cyclohexyl-hydroxy-phenyl-methyl)-oxazol-5-ylmethyl]-dimethyl-ammonium methanesulfonate] displayed a Ki at M3 muscarinic receptor above 10 nM.

`C[N+](C)(CCCOc1ccc(C(N)=O)cc1)Cc1cnc([C@](O)(c2ccccc2)C2CCCCC2)o1` [Example 51, [3-(4-Carbamoyl-phenoxy)-propyl]-[2-((R)-cyclohexyl-hydroxy-phenyl-methyl)-oxazol-5-ylmethyl]-dimethyl-ammonium bromide]: on M3 muscarinic receptor, the Ki fell in the range of 1 to 10 nM. `C[N+](C)(CC(=O)Nc1ccon1)Cc1cnc([C@](O)(c2ccccc2)C2CCCCC2)o1` [Example 52, [2-((R)-Cyclohexyl-hydroxy-phenyl-methyl)-oxazol-5-ylmethyl]-(isoxazol-3-ylcarbamoylmethyl)-dimethyl-ammonium bromide] had a Ki on M3 muscarinic receptor of 1 to 10 nM.

At M3 muscarinic receptor, `COC(=O)c1ccc(OCCC[N+](C)(C)Cc2cnc([C@](O)(c3ccccc3)C3CCCCC3)o2)cc1` [Example 53, [2-((R)-Cyclohexyl-hydroxy-phenyl-methyl)-oxazol-5-ylmethyl]-[3-(4-methoxycarbonyl-phenoxy)-propyl]-dimethyl-ammonium bromide] gave an inhibition constant Ki of 1 to 10 nM. Still for that read-out and setting: under `C[N+](C)(CCCOc1ccc(S(N)(=O)=O)cc1)Cc1cnc([C@](O)(c2ccccc2)C2CCCCC2)o1` [Example 54, [2-((R)-Cyclohexyl-hydroxy-phenyl-methyl)-oxazol-5-ylmethyl]-dimethyl-[3-(4-sulfamoyl-phenoxy)-propyl]-ammonium bromide] stands 1 to 10 nM; under `Cc1ccc(OCCC[N+](C)(C)Cc2cnc([C@](O)(c3ccccc3)C3CCCCC3)o2)cc1` [Example 55, [2-((R)-Cyclohexyl-hydroxy-phenyl-methyl)-oxazol-5-ylmethyl]-dimethyl-(3-p-tolyloxy-propyl)-ammonium bromide], below 1 nM; under `C[N+](C)(CCCOc1ccc(Cl)cc1)Cc1cnc([C@](O)(c2ccccc2)C2CCCCC2)o1` [Example 56, [3-(4-Chloro-phenoxy)-propyl]-[2-((R)-cyclohexyl-hydroxy-phenyl-methyl)-oxazol-5-ylmethyl]-dimethyl-ammonium bromide], below 1 nM. Same read-out and setting: under `C[N+](C)(CCCOc1ccc(Cl)c(Cl)c1)Cc1cnc([C@](O)(c2ccccc2)C2CCCCC2)o1` [Example 57, [2-((R)-Cyclohexyl-hydroxy-phenyl-methyl)-oxazol-5-ylmethyl]-[3-(3,4-dichloro-phenoxy)-propyl]-dimethyl-ammonium bromide] stands below 1 nM. The same measure, in the same setting: for `C[N+]1(Cc2cnc(C(O)(c3ccccc3)c3ccccc3)o2)CCC(Oc2ccccc2)CC1` (stereo not shown) [Example 58, 1-[2-(Hydroxy-diphenyl-methyl)-oxazol-5-ylmethyl]-1-methyl-4-phenoxy-piperidinium bromide] the value was 1 to 10 nM; for `C[N+](C)(Cc1ccccc1)Cc1cnc([C@](O)(c2ccccc2)C2CCCC2)o1` [Example 59, Benzyl-[2-(cyclopentyl-hydroxy-phenyl-methyl)-oxazol-5-ylmethyl]-dimethyl-ammonium bromide], 1 to 10 nM.

As to `CNCCCCCCCC[N+](C)(C)Cc1cnc([C@](O)(c2ccccc2)C2CCCCC2)o1` [Example 61, [2-((R)-cyclohexyl-hydroxy-phenyl-methyl)-oxazol-5-ylmethyl]-dimethyl-(8-methylamino-octyl)-ammonium methanesulfonate hydrochloride salt], on M3 muscarinic receptor, the Ki is below 1 nM. On to `CNCc1ccc(CC[N+](C)(C)Cc2cnc([C@](O)(c3ccccc3)C3CCCCC3)o2)cc1` [Example 62, [2-((R)-cyclohexyl-hydroxy-phenyl-methyl)-oxazol-5-ylmethyl]-dimethyl-[2-(4-methylaminomethyl-phenyl)-ethyl]-ammonium methanesulfonate hydrochloride], for which, on M3 muscarinic receptor, the Ki was below 1 nM. `C[N+](C)(CCCOc1ccccc1)CCc1cnc(C(O)(c2ccccc2)C2CCCCC2)o1` (stereo not shown) [Example 65, {2-[2-(Cyclohexyl-hydroxy-phenyl-methyl)-oxazol-5-yl]-ethyl}-dimethyl-(3-phenoxy-propyl)-ammonium bromide] displayed a Ki at M3 muscarinic receptor below 1 nM. On M3 muscarinic receptor, `CN(C)CCc1cnc(C(O)(c2ccccc2)c2ccccc2)o1` [Example 71, [5-(2-Dimethylamino-ethyl)-oxazol-2-yl]-diphenyl-methanol] came in with a Ki of 1 to 10 nM. The same measure, in the same setting: for `C[N+](C)(CCCOc1ccccc1)CCc1cnc(C(O)(c2ccccc2)c2ccccc2)o1` [Example 72, {2-[2-(Hydroxy-diphenyl-methyl)-oxazol-5-yl]-ethyl}-dimethyl-(3-phenoxy-propyl)-ammonium bromide] the value was below 1 nM; for `CN(C)Cc1cnc(C(c2ccccc2)c2ccccc2)o1` [Example 73, (2-Benzhydryl-oxazol-5-ylmethyl)-dimethyl-amine], above 10 nM; for `C[N+](C)(CCCOc1ccccc1)Cc1cnc(C(c2ccccc2)c2ccccc2)o1` [Example 74, (2-Benzhydryl-oxazol-5-ylmeth-dimethyl-(3-phenoxy-propyl)-ammonium bromide], above 10 nM. On the same count and under the same terms, under `COC(c1ccccc1)(c1ccccc1)c1ncc(C[N+](C)(C)CCCOc2ccccc2)o1` [Example 76, [2-(Methoxy-diphenyl-methyl)-oxazol-5-ylmethyl]-dimethyl-(3-phenoxy-propyl)-ammonium bromide] stands above 10 nM. In the case of `CN(CCCCCCCCCNC[C@H](O)c1ccc(O)c2[nH]c(=O)ccc12)Cc1cnc(C(O)(c2ccccc2)C2CCCCC2)o1` (stereo partly drawn) [Example 77, 5-[(R)-2-(9-{[2-(Cyclohexyl-hydroxy-phenyl-methyl)-oxazol-5-ylmethyl]-methyl-amino}-nonylamino)-1-hydroxy-ethyl]-8-hydroxy-1H-quinolin-2-one], the Ki is below 100 nM in experiment [1] and above 10 nM at M3 muscarinic receptor. Turning to `C[N+](C)(CCCOc1ccccc1)Cc1cnc(C(O)(c2ccccc2)c2ccccc2)s1` [Example 79, [2-(Hydroxydiphenylmethyl)thiazol-5-ylmethyl]dimethyl-(3-phenoxypropyl)ammonium bromide], at M3 muscarinic receptor, the Ki was below 1 nM. Molecule `C[N+](C)(CCCOCc1ccccc1)Cc1cnc([C@](O)(c2ccccc2)C2CCCCC2)o1` [Example 80, (3-Benzyloxy-propyl)-[2-((R)-cyclohexyl-hydroxy-phenyl-methyl)-oxazol-5-ylmethyl]-dimethyl-ammonium bromide] registered a Ki on M3 muscarinic receptor below 1 nM. As to `C[N+](C)(CCOCc1ccc(Cl)cc1)Cc1cnc([C@](O)(c2ccccc2)C2CCCCC2)o1` [Example 81, [2-(4-Chloro-benzyloxy)-ethyl]-[2-((R)-cyclohexyl-hydroxy-phenyl-methyl)-oxazol-5-ylmethyl]-dimethyl-ammonium methanesulfonate], the Ki on M3 muscarinic receptor was below 1 nM.

Values taken from patent US20100113540A1, “Azole and Thiazole Derivatives and Their Use” (ARGENTA DISCOVERY LIMITED, priority 2005, published 2010).
